Structures are written as SMILES.

The data set deals with patients with malignant brain tumors. An excerpt:
Blood/bone marrow toxicity data from patients with malignant brain tumors treated with carboplatin-based regimens with or without delayed high-dose STS were graded in accordance with National Cancer Institute Common Toxicity Criteria (NCI CTC) (version 2.0).
Treatment Regimen. Patients with a variety of malignant brain tumor histologies, including metastases to the brain, were eligible for treatment. Patients who had previously undergone central nervous system or systemic radiotherapy or chemotherapy were eligible, however 2 weeks must have elapsed since prior radiotherapy and 4 weeks since prior chemotherapy. Patients were required to have normal hematologic, renal and hepatic function.
The BBBD procedure was done on two consecutive days, approximately every 4 weeks for up to 12 months. Mannitol (25%) was infused (5-10 cc/sec) into the appropriate internal carotid or vertebral artery, depending on tumor location, for 30 seconds. The combination chemotherapy regimen consisted of cyclophosphamide (330 Mg/m^2/day×2 days; total dose, 660 mg/m^2) (i.v.) beginning approximately 20 minutes before the mannitol infusion, carboplatin (200 mg/m^2/day×2 days; total dose, 400 Mg/m^2) (i.a.) administered over 10 minutes, within 5 minutes after the mannitol, and etoposide (i.v.) or etoposide phosphate (200 mg/m^2/day×2 days; total dose, 400 mg/m^2) (i.a. or i.v.). Patients received granulocyte-colony stimulating factor (G-CSF) (5 mcg/kg) for 10 days after chemotherapy or until the absolute neutrophil count was greater than 1000/μL.
STS was available as a 25% (250 mg/ml) solution. Dose was determined (16 or 20 grams/m^2) and mixed with an equivalent amount of sterile water (1 ml: 1 ml) for infusion. […] The most commonly used regimen was benadryl (12.5 mg), dexamethasone (6 mg), and if needed, ativan (0.5-1.0 mg), i.v. 30-45 minutes before STS.
STS was administered i.v. over about 15 minutes. The number of STS doses the patient received depended on the patient baseline hearing status, and whether they experienced an ototoxic shift during treatment. Patients treated with BBBD/STS received STS in one dose (20 grams/m^2) 4 hours after carboplatin (n=10), or two doses (20 grams/m^2 at 4 hrs, and 16 grams/m^2 at 8 hours) after carboplatin (n=19).
Because malignant brain tumor patients are at risk for intracerebral hemorrhage, patients underwent platelet transfusion when platelet count was <20×10^3/mm^3. Following a platelet transfusion, on subsequent chemotherapy courses the carboplatin dose was reduced 25%.
Data Analysis. Blood/bone marrow toxicity data were graded in accordance with NCI CTC and analyzed in the following […] treatment groups: 1) patients treated with carboplatin, cyclophosphamide and etoposide with BBBD and without STS, and 2) patients treated with carboplatin, cyclophosphamide and etoposide phosphate with BBBD and with STS. For both groups, blood/bone marrow toxicity data from all carboplatin-based courses of patients in treatment were included in the analysis.
First, platelet nadirs were plotted for each subject and as means for each of the three study groups. For group comparisons, a mixed, repeated measures analysis of variance (ANOVA) model was fit using the parameter platelet nadir for each course as the measure. Gender, […] (≧70 or not), prior chemotherapy, prior radiation, and age at first course were included as covariates. Several other events were examined including grade 3 or 4 platelet toxicity as defined by NCI CTC, platelet transfusion, and the need for hematologically driven chemotherapy dose reduction. […] For present/absent outcomes as these, a mixed model repeated measures analysis (using the present/absent outcomes as the best response for each course) was performed. The mixed model ANOVA's using presence/absence of the outcome was adjusted for the covariates listed above.
Analyses were performed using Version 8.01 of SAS® for Windows.

`O=S([O-])([O-])=S.[Na+].[Na+]` [STS, sodium thiosulfate]: the “adverse effects caused by high-dose STS” value (16 or 20 grams/m^2 i.v., National Cancer Institute CTC, version 2.0) was “transient hypematremia, hypertension, and controllable grade II nausea and vomiting”. Moreover, under “BBBD with STS”, the “patients requiring dose reduction of carboplatin” value is “no patients”. Further, under “BBBD/STS, 129 courses”, the “Platelet Nadir <20 × 10^3/mm^3, percent of carboplatin courses” value worked out at 1% courses and the “Platelet Transfusions, percent of carboplatin courses” value was found to be 2% courses. Where the note is “BBBD/STS, n = 29”, the “Dose Reductions of carboplatin, percent of patients” value was 0% pts and the “Platelet Transfusions, percent of patients” value was determined as 7% pts. Besides, the “Platelet Nadir <20 × 10^3/mm^3, percent of patients” value (BBBD/STS, n = 29, carboplatin, cyclophosphamide, etoposide phosphate, STS i.v. 20 grams/m^2 at 4 h (and 16 grams/m^2 at 8 h) after carboplatin) is 4% pts. The “grade 3 or 4 white blood cell toxicity, treatment groups with vs without STS” value (NCI CTC) is recorded as “no significant difference among treatment groups”. Besides, the “grade 3 or 4 platelet toxicity, treatment groups with vs without STS” value (NCI CTC, adjusted for age at first carboplatin treatment, p=0.14) is given as “no significant difference among the treatment groups”. The “rates of dose reduction of carboplatin, treatment groups with vs without STS” value (Pearson chi-square test) is given as “difference between the treatment groups was significant”. Further, for the setting “mixed model, p=0.035”, the “platelet transfusion (present or absent), treatment groups with vs without STS” value was “significant difference between the treatment groups”. For the same molecule, the “platelet nadir <20×10^3/mm^3 (binary), treatment groups with vs without STS” value (mixed-model analysis of variance controlling for KPS≧70 and prior chemotherapy, p=0.0002) is reported as “significant difference among the two treatment groups”. The “estimated probabilities of platelet transfusions” value (patients treated with BBBD and STS, mixed model estimate (22.4% for BBBD without STS)) is given as 9.0%.

(Values after patent US20040146585A1, “Use of thiol-based compositions in treating chemotherapeutic agent-induced thrombocytopenia” (Oregon Health & Science University, priority 2002, published 2004).)
